Data as given in patent US20240229063A1, “TRANSGENIC CORN EVENT ZM_CSM63715 AND METHODS FOR DETECTION AND USES THEREOF” (Monsanto Technology LLC, priority 2022, published 2024).

Test system: Cas 12a gRNA target sites on Zea mays B73 chromosome 8
Test: gRNA target site editing rate by Fragment Length Analysis in stably transformed corn plants
Format: in vivo
Details: LbCas12a; for Number of Plants with Target Site Edits: stably transformed corn plants
Source text: Agrobacterium T-DNA vectors were designed to evaluate gRNA and LbCas12a nuclease mediated cleavage at the selected target sites. Each T-DNA vector comprised 3 cassettes. The first cassette comprised a plant codon optimized LbCas12a (SEQ ID NO:33) flanked by the same nuclear localization signal sequence (NLS) at the 5′ and 3′ ends (SEQ ID:191), and was operably linked to Zea mays Ubiquitin promoter (SEQ ID NO:192) and a 3′UTR sequence from a rice lipid transfer protein (LTP) gene (SEQ ID NO:193). The second cassette was a unique gRNA cassette targeting one of the 17 targeting sites described in Table 5. The cassette comprised a Zea mays Pol III promoter operably linked to a Cas12a gRNA unit. […] The third cassette was an EPSPS expression cassette encoding a 5-enolpyruvylshikimate-3-phosphate synthase as a selectable marker for selecting transformants in the present of glyphosate.
Corn embryo explants were transformed with the vectors described above by Agrobacterium-mediated transformation. Transformed plants were selected on glyphosate. Leaf samples from regenerated plantlets were harvested, and genomic DNA was extracted for Fragment Length Analysis (FLA). […] The amplicon fragment lengths were subsequently analyzed using capillary electrophoresis, and compared to a wildtype amplicon to identify mutants that had larger or smaller amplicons due to the presence of indels. […] One μl of the PCR product was combined with 0.5 μl of the GeneScan 1200 LIZ Size Standard (Thermo Fisher, MA), 8.5 μl of formamide, and ran on ABI3730 sequencer (Thermo Fisher, MA) to detect amplicon size and analyzed for fragment length variation to identify plants with mutations at the target sites. […] NA denotes that a transformation was performed, but was not successful. gRNA activity was determined by calculating the percentage of plants that contained a target site indel edit out of the total number of plants examined.

ZmTS1: LbCas12a gRNA targeting site ZmTS1 (target SEQ ID NO 174, spacer SEQ ID NO 195) (guide ACCGACTTGGGCATATATTATTT; gRNA scaffold not given here)
Target Editing Rate (percentage of plants with a target site indel edit out of plants examined): 11% | Number of Plants with Target Site Edits: 16

ZmTS10: LbCas12a gRNA targeting site ZmTS10 (target SEQ ID NO 183, spacer SEQ ID NO 204) (guide CCACAAGGCTATTCACTCCCTAT; gRNA scaffold not given here)
Number of Plants with Target Site Edits: 32
